Where a SMILES comes first, the peptide text is derived from it. Where no end group is shown, it is not given here. [ ]: non-standard residue; d: D form. The star is where a group is joined. Tyr(3-OMe) = COc1cc(C[C@H](N)C(=O)O)ccc1O; Phe(4-CN) = N#Cc1ccc(C[C@H](N)C(=O)O)cc1; Desaminotyrosyl = O=C(CCc1ccc(O)cc1)*; Pip = O=C(O)[C@@H]1CCCCN1; Ac6c = NC1(C(=O)O)CCCCC1; Nle = CCCC[C@H](N)C(=O)O; Ac5c = NC1(C(=O)O)CCCC1; Aib = CC(C)(N)C(=O)O
Experiments:
[1] = biological target: T1, human recombinant GIP receptor (Homo sapiens, UniProt P48546); assay: In vitro hGIP receptor binding assay
T1 construct: expressed in transfected cells; host or cells: CHO-K1 clonal cells (membrane preparation)
T1 sequence (P48546 22-466): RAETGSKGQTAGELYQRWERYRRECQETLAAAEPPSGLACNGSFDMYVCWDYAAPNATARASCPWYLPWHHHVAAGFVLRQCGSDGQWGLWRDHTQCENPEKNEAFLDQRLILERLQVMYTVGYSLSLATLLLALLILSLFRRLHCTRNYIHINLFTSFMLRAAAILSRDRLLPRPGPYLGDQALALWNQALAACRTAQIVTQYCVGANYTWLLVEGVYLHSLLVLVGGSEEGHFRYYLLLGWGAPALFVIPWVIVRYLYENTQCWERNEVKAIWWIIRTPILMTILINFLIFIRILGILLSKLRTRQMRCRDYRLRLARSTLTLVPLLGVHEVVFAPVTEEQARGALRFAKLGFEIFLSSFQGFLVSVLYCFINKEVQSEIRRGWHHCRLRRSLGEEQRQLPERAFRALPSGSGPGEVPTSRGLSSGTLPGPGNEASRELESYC
Description: A. In Vitro hGIP Receptor Binding Assay […] The incubations were terminated by rapid filtration through GF/C filters (pre-soaked in 0.5% polyethylenimine) using a Brandel filtration manifold. Each tube and filter were then washed three times with 5-ml aliquots of ice-cold buffer.

[2] = Human plasma half-life assay; format: in vitro ADME; conditions: 37° C., LC-MS, read-out: Human Plasma T½ (converted)
Description: (§1) B. Human and Rat Plasma Half-Life Assay
(§2) 50 μl was removed at various times, like at 0, 1, 2, 3, 4, 8, 24, 32, 48, 56, 72 hours, mixed with 5 μl formic acid and 150 μL acetonitrile in a microcentrifuge tube, vertexed, and centrifuged for 10 minutes at 10 K rpm. The supernatant was transferred to an injection vial and analyzed by LC-MS. The LC-MS system consisted of an API4000 mass spectrometer with an ESI probe. Positive ion mode and full scan detection were used. HPLC separation was carried out on a Luna 3μ. C8 (2), 2×30 mm column with a gradient from 90% A to 90% B in 10 minutes at a flow rate of 0.3 ml/min. Buffer A was 1% formic acid in water and buffer B was 1% formic acid acetonitrile.

[3] = Rat plasma half-life assay; format: in vitro ADME; conditions: 37° C., LC-MS, read-out: Rat Plasma T½ (converted)
Description: as §1, §2

Compound	Ki [1]	half-life at 0.1 mg/ml [2]	half-life at 0.1 mg/ml [3]	half-life [2]	half-life [3]
CC[C@H](C)[C@H](NC(=O)[C@H](CCCCN)NC(=O)[C@H](CC(=O)O)NC(=O)[C@H](CCSC)NC(=O)[C@H](C)NC(=O)[C@@H](NC(=O)C1(NC(=O)[C@H](Cc2ccc(O)cc2)NC(=O)[C@H](CC(=O)O)NC(=O)[C@H](CO)NC(=O)[C@@H](NC(=O)[C@H](Cc2ccccc2)NC(=O)[C@@H](NC(=O)CNC(=O)[C@H](CCC(=O)O)NC(=O)C(C)(C)NC(=O)[C@@H](N)Cc2cccc(F)c2)[C@@H](C)O)[C@@H](C)CC)CCCC1)[C@@H](C)CC)C(=O)N[C@@H](Cc1c[nH]cn1)C(=O)N[C@@H](CCC(N)=O)C(=O)N[C@@H](CCC(N)=O)C(=O)N[C@@H](CC(=O)O)C(=O)N[C@@H](Cc1ccccc1)C(=O)N[C@H](C(=O)N[C@@H](CC(N)=O)C(=O)N[C@@H](Cc1c[nH]c2ccccc12)C(=O)N[C@@H](CC(C)C)C(=O)N[C@@H](CC(C)C)C(=O)N[C@@H](C)C(=O)N[C@@H](CCC(N)=O)C(=O)N[C@@H](CCCCN)C(=O)NCC(=O)N[C@@H](CCCCN)C(=O)N[C@@H](CCCCN)C(=O)N[C@@H](CC(N)=O)C(=O)N[C@@H](CC(=O)O)C(=O)N[C@@H](Cc1c[nH]c2ccccc12)C(=O)N[C@@H](CCCCN)C(=O)N[C@@H](Cc1c[nH]cn1)C(=O)N[C@@H](CC(N)=O)C(=O)N[C@H](C(=O)NC1(C(=O)N[C@@H](CCC(N)=O)C(=O)O)CCCC1)[C@@H](C)CC)C(C)C [Example 41, (3F-Phe^1, Aib^2, A5c^11, 41)hGIP(1-42)-OH]	5.43 nM	63.6 h	> 66 h	–	–
CC[C@H](C)[C@H](NC(=O)[C@H](CCCCN)NC(=O)[C@H](CC(=O)O)NC(=O)[C@H](CCSC)NC(=O)[C@H](C)NC(=O)[C@@H](NC(=O)C1(NC(=O)[C@H](Cc2ccc(O)cc2)NC(=O)[C@H](CC(=O)O)NC(=O)[C@H](CO)NC(=O)[C@@H](NC(=O)[C@H](Cc2ccccc2)NC(=O)[C@@H](NC(=O)CNC(=O)[C@H](CCC(=O)O)NC(=O)C(C)(C)NC(=O)[C@@H](N)Cc2ccc(O)c(OC)c2)[C@@H](C)O)[C@@H](C)CC)CCCC1)[C@@H](C)CC)C(=O)N[C@@H](Cc1c[nH]cn1)C(=O)N[C@@H](CCC(N)=O)C(=O)N[C@@H](CCC(N)=O)C(=O)N[C@@H](CC(=O)O)C(=O)N[C@@H](Cc1ccccc1)C(=O)N[C@H](C(=O)N[C@@H](CC(N)=O)C(=O)N[C@@H](Cc1c[nH]c2ccccc12)C(=O)N[C@@H](CC(C)C)C(=O)N[C@@H](CC(C)C)C(=O)N[C@@H](C)C(=O)N[C@@H](CCC(N)=O)C(=O)N[C@@H](CCCCN)C(=O)NCC(=O)N[C@@H](CCCCN)C(=O)N[C@@H](CCCCN)C(=O)N[C@@H](CC(N)=O)C(=O)N[C@@H](CC(=O)O)C(=O)N[C@@H](Cc1c[nH]c2ccccc12)C(=O)N[C@@H](CCCCN)C(=O)N[C@@H](Cc1c[nH]cn1)C(=O)N[C@@H](CC(N)=O)C(=O)N[C@H](C(=O)N[C@H](C(=O)N[C@@H](CCC(N)=O)C(=O)N[C@@H](Cc1c[nH]cn1)C(=O)O)[C@@H](C)O)[C@@H](C)CC)C(C)C [Example 73, (3MeO-Tyr^1, Aib^2, A5c^11, His^43)hGIP(1-43)-OH]	3.9 nM	28.6 h	11.8 h	–	–
CCCC[C@H](NC(=O)[C@H](C)NC(=O)[C@@H](NC(=O)C1(NC(=O)[C@H](Cc2ccc(O)cc2)NC(=O)[C@H](CC(=O)O)NC(=O)[C@H](CO)NC(=O)[C@@H](NC(=O)[C@H](Cc2ccccc2)NC(=O)[C@@H](NC(=O)CNC(=O)[C@H](CCC(=O)O)NC(=O)C(C)(C)NC(=O)[C@@H](N)Cc2c[nH]cn2)[C@@H](C)O)[C@@H](C)CC)CCCC1)[C@@H](C)CC)C(=O)N[C@@H](CC(=O)O)C(=O)N[C@@H](CCCCN)C(=O)N[C@H](C(=O)N[C@@H](Cc1c[nH]cn1)C(=O)N[C@@H](CCC(N)=O)C(=O)N[C@@H](CCC(N)=O)C(=O)N[C@@H](CC(=O)O)C(=O)N[C@@H](Cc1ccccc1)C(=O)N[C@H](C(=O)N[C@@H](CC(N)=O)C(=O)N[C@@H](Cc1c[nH]c2ccccc12)C(=O)N[C@@H](CC(C)C)C(=O)N[C@@H](CC(C)C)C(=O)N[C@@H](C)C(=O)N[C@@H](CCC(N)=O)C(=O)N[C@@H](CCCCN)C(=O)NCC(=O)N[C@@H](CCCCN)C(=O)N[C@@H](CCCCN)C(=O)N[C@@H](CC(N)=O)C(=O)N[C@@H](CC(=O)O)C(=O)N[C@@H](Cc1c[nH]c2ccccc12)C(=O)N[C@@H](CCCCN)C(=O)N[C@@H](Cc1c[nH]cn1)C(=O)N[C@@H](CC(N)=O)C(=O)N[C@H](C(=O)N[C@H](C(=O)N[C@@H](CCC(N)=O)C(=O)O)[C@@H](C)O)[C@@H](C)CC)C(C)C)[C@@H](C)CC [Example 12, (His^1, Aib^2, A5c^11, Nle^14)hGIP(1-42)-OH]	3.18 nM	82.5 h	11 h	–	–
[Tyr(3-OMe)][Aib]EGTFISDY[Ac5c]IA[Ac5c]DKIHQQDFVNWLLAQKGKKNDWKHNI[Ac5c]QH-OH [Example 75, (3MeO-Tyr^1, Aib^2, A5c^11, 14, His^43)hGIP(1-43)-OH]	–	–	–	> 60 h	18.6 h
Desaminotyrosyl-A[Pip]GTF[Ac6c]SDYSIAMDKIHQQDFVNWLLAQKGKKNDWKHNITQ [Example 8, (4Hppa^1, hPro^3, A6c^7)hGIP(1-42)-OH]	707 nM	> 53 h	12.9 h	–	–
CCCC[C@H](NC(=O)[C@H](C)NC(=O)[C@@H](NC(=O)C1(NC(=O)[C@H](Cc2ccc(O)cc2)NC(=O)[C@H](CC(=O)O)NC(=O)[C@H](CO)NC(=O)[C@@H](NC(=O)[C@H](Cc2ccccc2)NC(=O)[C@@H](NC(=O)CNC(=O)[C@H](CCC(=O)O)NC(=O)C(C)(C)NC(=O)[C@@H](N)Cc2cc(Br)c(O)c(Br)c2)[C@@H](C)O)[C@@H](C)CC)CCCC1)[C@@H](C)CC)C(=O)N[C@@H](CC(=O)O)C(=O)N[C@@H](CCCCN)C(=O)N[C@H](C(=O)N[C@@H](Cc1c[nH]cn1)C(=O)N[C@@H](CCC(N)=O)C(=O)N[C@@H](CCC(N)=O)C(=O)N[C@@H](CC(=O)O)C(=O)N[C@@H](Cc1ccccc1)C(=O)N[C@H](C(=O)N[C@@H](CC(N)=O)C(=O)N[C@@H](Cc1c[nH]c2ccccc12)C(=O)N[C@@H](CC(C)C)C(=O)N[C@@H](CC(C)C)C(=O)N[C@@H](C)C(=O)N[C@@H](CCC(N)=O)C(=O)N[C@@H](CCCCN)C(=O)NCC(=O)N[C@@H](CCCCN)C(=O)N[C@@H](CCCCN)C(=O)N[C@@H](CC(N)=O)C(=O)N[C@@H](CC(=O)O)C(=O)N[C@@H](Cc1c[nH]c2ccccc12)C(=O)N[C@@H](CCCCN)C(=O)N[C@@H](Cc1c[nH]cn1)C(=O)N[C@@H](CC(N)=O)C(=O)N[C@H](C(=O)N[C@H](C(=O)N[C@@H](CCC(N)=O)C(=O)O)[C@@H](C)O)[C@@H](C)CC)C(C)C)[C@@H](C)CC [Example 13, (3,5Br-Tyr^1, Aib^2, A5c^11, Nle^14)hGIP(1-42)-OH]	21.8 nM	50.6 h	13.1 h	–	–
[Phe(4-CN)][Aib]EGTFISDY[Ac5c]IAMDKIHQQDFVNWLLAQKGKKNDWKHNITQH-OH [Example 79, (4CN-Phe^1, Aib^2, A5c^11, His^43)hGIP(1-43)-OH]	5.12 nM	26.3 h	21.7 h	–	–
CCCC[C@H](NC(=O)[C@H](C)NC(=O)[C@@H](NC(=O)[C@H](CO)NC(=O)[C@H](Cc1ccc(O)cc1)NC(=O)[C@H](CC(=O)O)NC(=O)[C@H](CO)NC(=O)[C@@H](NC(=O)[C@H](Cc1ccccc1)NC(=O)[C@@H](NC(=O)CNC(=O)[C@@H]1CCCN1C(=O)C(C)(C)NC(=O)CCc1ccc(O)cc1)[C@@H](C)O)[C@@H](C)CC)[C@@H](C)CC)C(=O)N[C@@H](CC(=O)O)C(=O)N[C@@H](CCCCN)C(=O)N[C@H](C(=O)N[C@@H](Cc1c[nH]cn1)C(=O)N[C@@H](CCC(N)=O)C(=O)N[C@@H](CCC(N)=O)C(=O)N[C@@H](CC(=O)O)C(=O)N[C@@H](Cc1ccccc1)C(=O)N[C@H](C(=O)N[C@@H](CC(N)=O)C(=O)N[C@@H](Cc1c[nH]c2ccccc12)C(=O)N[C@@H](CC(C)C)C(=O)N[C@@H](CC(C)C)C(=O)N[C@@H](C)C(=O)N[C@@H](CCC(N)=O)C(=O)N[C@@H](CCCCN)C(N)=O)C(C)C)[C@@H](C)CC [Example 9, (4Hppa^1, Aib^2, hPro^3, Nle^14)hGIP(1-30)-NH2] (Desaminotyrosyl-[Aib]PGTFISDYSIA[Nle]DKIHQQDFVNWLLAQK-NH2)	–	–	–	26.5 h	14 h

— patent US8999940B2 (Ipsen Pharma S.A.S., priority 2008, dated 2015)
